Data on seven compounds can be found in patent publication US6416738B1, “Pretargeting methods and compounds” (NeoRx Corporation, priority 1973, dated 2002).

For series [1], the system named is LS-180 tumor xenografts. The series can be described thus: Tumor uptake of PIP-biocytin after NR-LU-10-streptavidin. In kind it is in vivo, nude mice. The method, then: The following data are based on experimentation with tumored nude mice (100 mg LS-180 tumor xenografts implanted subcutaneously 7 days prior to study) that received, at time 0, 200 μg of I-125 labeled NR-LU-10-Streptavidin conjugate (950 pmol), as discussed in Example XI above. At 24 hours, the mice received an i.v. injection of PIP-I-131-biocytin (40 μCi) and an amount of cold carrier PIP-I-127 biocytin corresponding to doses of 42 μg (69,767 pmol), 21 μg (34,884 pmol), 5.7 μg (9468 pmol), 2.85 μg (4734 pmol) or 0.5 μg (830 pmol).

The nature of series [2]: Time dependent cleavage of DOTA-biotin conjugates in serum (% avidin binding). The class given is in vitro ADME. An excerpt:
The difference in serum stability between DOTA-LC-biotin and DOTA-SC-biotin might be explained by the fact that the SC derivative contains an aromatic amide linkage in contrast to the aliphatic amide linkage of the LC derivative, with the aliphatic amide linkage being more readily recognized by enzymes as a substrate therefor. This argument cannot apply to biotinidase, however, because biotinidase very efficiently cleaves aromatic amides. In fact, it is recognized that the simplest and most commonly employed biotinidase activity measuring method uses N-(d-biotinyl)-4-aminobenzoate (BPABA) as a substrate, with the hydrolysis of BPABA resulting in the liberation of biotin and 4-aminobenzoate (PABA). See, for example, B. Wolf, et al., “Methods in Enzymology,” pp. 103-111, Academic Press Inc., 1990. Consequently, one would predict that DOTA-SC-biotin, like its LC counterpart, would be a biotinidase substrate. […] A series of DOTA-biotin conjugates was therefore synthesized by the present inventors to determine which structural features conferred serum stability to the conjugates.

Series [3] concerns LS-180 tumor xenografts. The series can be described thus: Two-step pretargeting with NR-LU-10-avidin and 131I-PIP-biocytin. The class given is in vivo, nude mice. The note with it: 200 μg NR-LU-10-avidin at t=0, 42 μg 131I-PIP-biocytin at t=36 h. The method, then:
^131I-PIP-biocytin was evaluated in a two-step pretargeting procedure in tumor-bearing mice. […] At t=0, the mice were injected with 200 μg of NR-LU-10-avidin conjugate labeled with ^125I using PIP-NHS (see Example IV.A.). At t=36 h, the mice received 42 μg of ^131I-PIP-biocytin. […] The described radiohalogenated biotin compounds are amenable to the same types of modifications described in Example VI above for ^186Re-chelate-biotin conjugates. In particular, the following PIP-polylysine-biotin molecule is made by trace labeling polylysine with ^125I-PIP, followed by extensive biotinylation of the polylysine. [drawing 47]

A further series concerns LS-180 tumor. The experiment in a line: Two-step pretargeting in LS-180 animal model.
Series [4] in a line: Excretion of neutral MAMA chelate-biotin conjugate. As to conditions: in vivo. An excerpt:
Although the net overall charge of the conjugate is neutral, the polycarboxylate nature of the molecule generates regions of hydrophilicity and hydrophobicity. By altering the number and nature of the carboxylate groups within the conjugate, excretion may be shifted from kidney to gastrointestinal routes. For instance, neutral compounds are generally cleared by the kidneys; anionic compounds are generally cleared through the GI system.

For series [5], the system named is LS-180 human colon tumor xenografts. The series can be described thus: Three-step pretargeting in LS-180 xenograft model. As to conditions: for tumor uptake: antibody at time 0, avidin at 24 h. An excerpt: The experimental protocol was as follows:
The three radiolabels employed in this protocol are capable of detection in the presence of each other. It is also noteworthy that the sizes of the three elements involved are logarithmically different—antibody≅150,000; avidin≅66,000; and biotin≅1,000.

Series [6] deals with T1, Streptavidin-agarose beads (Streptomyces avidinii, UniProt P22629).
T1 construct: purchased Sigma S-1638
T1 sequence (P22629 25-183): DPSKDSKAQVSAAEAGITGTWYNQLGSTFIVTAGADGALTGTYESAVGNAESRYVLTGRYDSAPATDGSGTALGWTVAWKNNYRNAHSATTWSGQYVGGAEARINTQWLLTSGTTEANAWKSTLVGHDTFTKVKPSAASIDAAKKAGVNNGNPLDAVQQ
The series can be described thus: Streptavidin-agarose bead binding. As to conditions: for Pellet: radioactivity bound to streptavidin-agarose beads; for Supernatant: radioactivity not bound to streptavidin-agarose beads. Here is the method:
100 μl of 0.2 M sodium carbonate buffer, pH 9.2, was added to 2 mg (in 1.00 ml PBS) of PIP-125-labeled orosomucoid and to 2 mg PIP-125-labeled asialoorosomucoid. 60 μl of a 1.85 mg/ml solution of NHS-amino caproate biotin in DMSO was then added to each compound. The reaction mixtures were vortexed and allowed to sit at room temperature for 45 minutes. The material was purified by size exclusion column chromatography (PD-10, Pharmacia) and eluted with PBS. 1.2 ml fractions were taken, with fractions 4 and 5 containing the majority of the applied radioactivity (>95%). Streptavidin-agarose beads (Sigma S-1638) or -pellets were washed with PBS, and 20 μg of each biotinylated, radiolabeled protein was added to 400 μl of beads and 400 μl of PBS, vortexed for 20 seconds and centrifuged at 14,000 rpm for 5 minutes. The supernatant was removed and the pellets were washed with 400 μl PBS. This wash procedure was repeated twice more, and the combined supernatants were assayed by placing them in a dosimeter versus their respective pellets.

Series [7] is described as follows: Blood clearance and limited biodistribution of orosomucoid and asialoorosomucoid. As to conditions: for blood level: I-125-labeled protein i.v.
Experimental: The asialoorosomucoid and orosomucoid starting material were radiolabeled with I-125 using PIP technology, as described in Example IV above.
In addition, two animals receiving each compound were sacrificed at 5 minutes post-administration and limited biodistributions were performed.
For a further series, the system named is HA peptide. The note with it: physiological conditions, concentrations as low as 10^−13 M; cited from earlier work.

Ends that are not written are not given here.

Regarding `O=C(CCCCC1SCC2NC(=O)NC21)NCCCC[C@H](NC(=O)c1ccc([125I])cc1)C(=O)O` (some centres unmarked) [PIP-Biocytin, p-[I-125]iodobenzoylbiocytin], the peak tumor uptake is listed as 85.0 % ID/G in the series on LS-180 tumor xenografts [1] (0.5 μg dose, 120 hour time point (96 hours after PIP-biocytin)) and “about 700 pMOL/G” with LS-180 tumor (45 hours post-LU-10-StrAv administration). For the same compound, the tumor localization result in the series on LS-180 tumor xenografts [1] (three highest doses (42, 21, 5.7 μg), 4 hours after PIP-biocytin injection) is listed as “about 600 pmol/g”. The “% Avidin Binding” value in series [2] (5 Minutes at 37° C.) is recorded as 75%; in series [2] (15 Minutes at 37° C.), 57%; in series [2] (30 Minutes at 37° C.) it was 31%. In the series with LS-180 tumor xenografts [3], the “131I-PIP-biocytin molecules per avidin molecule at tumor” value was “≈ 1.5”. In the series with LS-180 tumor (40 hour time point, PIP-BT at 37 hours following LU-10-StrAv), the tumor uptake result was “above 500 pMOL/G”.

In the case of `O=C(O)CN1CCN(CCOO)CCN(CCOO)CCN(CC(=O)O)C(Cc2ccc(NC(=O)CCCCC3SCC4NC(=O)NC43)cc2)C1` (centres unmarked) [Y-90-SC DOTA-Biotin, metal not drawn], the “% Avidin Binding” value in series [2] (20 Hours at 37° C.) amounted to 60%; in [2] (60 Minutes at 37° C.) it was 98%. The serum stability result in series [2] (in comparison to DOTA-LC-biotin) is given as “significantly improved serum stability”.

Turning to `CN(CCSCc1ccccc1)CC(CCC(=O)NCCNC(=O)CC1SCC2NC(=O)NC21)NC(=O)CS` (centres unmarked) [neutral MAMA chelate-biotin conjugate], the kidney excretion entry in [4] is “superior kidney excretion”.

On to “Avidin: avidin (MW≈66 kD), radiolabeled with 131I/PIP-NHS”, for which the tumor uptake result is recorded as “about 250 pmol/g” in series [5] (at 25 h), roughly 150 pmol/g in [5] (at 32 h), roughly 50 pmol/g in series [5] (at 48 h) and roughly 0 pmol/g in [5] (at 120 h). In series [5] (mouse, in vivo), the “injected dose cleared from the blood” value is recorded as “greater than 90%”.

As to “asialoorosomucoid: orosomucoid treated with neuraminidase”, in series [6], the Pellet amounted to 8.0% and the Supernatant worked out at 92%. Further, in [7] (5 minutes post-administration), the “uptake in the liver” value is 86% and the blood level amounted to 0.4%. Further, in [7] (5 minutes to 4 hours post-administration), the blood clearance entry is “clearing more rapidly than its orosomucoid counterpart”.

With “orosomucoid: human alpha-1 acid glycoprotein [reference compound]”, in series [6], the Pellet was determined as 10% and the Supernatant was 90%. Also, the blood level in series [7] (5 minutes post-administration) was determined as 78%.

Regarding “pGlu-Pto-Pro-Gly-Gly-Ser-Lys-Val-Ile-Leu-Phe (PGGSKVILF; not fully specified (N-terminus); printed as pGlu-Pto-Pro-Gly-Gly-Ser-Lys-Val-Ile-Leu-Phe) [HA peptide]”, the “dissociation of HA dimer into monomers” value in the series with HA peptide was “does not dissociate into monomers”.
